Measured values as given in patent US11136313B2, “Compounds, compositions, and methods for modulating CFTR” (Proteostasis Therapeutics, Inc., priority 2015, dated 2021).

Biological target: T1, ΔF508-CFTR (Homo sapiens, UniProt P13569, DEL508-508)
T1 construct: Primary lung epithelial cells homozygous for the Cystic Fibrosis-causing ΔF508 mutation were differentiated for a minimum of 4 weeks; endogenous in cells; host or cells: primary lung epithelial cells (hBE) homozygous for ΔF508, differentiated at an air-liquid interface
T1 sequence (P13569 with tags, fused parts or gaps DEL508-508): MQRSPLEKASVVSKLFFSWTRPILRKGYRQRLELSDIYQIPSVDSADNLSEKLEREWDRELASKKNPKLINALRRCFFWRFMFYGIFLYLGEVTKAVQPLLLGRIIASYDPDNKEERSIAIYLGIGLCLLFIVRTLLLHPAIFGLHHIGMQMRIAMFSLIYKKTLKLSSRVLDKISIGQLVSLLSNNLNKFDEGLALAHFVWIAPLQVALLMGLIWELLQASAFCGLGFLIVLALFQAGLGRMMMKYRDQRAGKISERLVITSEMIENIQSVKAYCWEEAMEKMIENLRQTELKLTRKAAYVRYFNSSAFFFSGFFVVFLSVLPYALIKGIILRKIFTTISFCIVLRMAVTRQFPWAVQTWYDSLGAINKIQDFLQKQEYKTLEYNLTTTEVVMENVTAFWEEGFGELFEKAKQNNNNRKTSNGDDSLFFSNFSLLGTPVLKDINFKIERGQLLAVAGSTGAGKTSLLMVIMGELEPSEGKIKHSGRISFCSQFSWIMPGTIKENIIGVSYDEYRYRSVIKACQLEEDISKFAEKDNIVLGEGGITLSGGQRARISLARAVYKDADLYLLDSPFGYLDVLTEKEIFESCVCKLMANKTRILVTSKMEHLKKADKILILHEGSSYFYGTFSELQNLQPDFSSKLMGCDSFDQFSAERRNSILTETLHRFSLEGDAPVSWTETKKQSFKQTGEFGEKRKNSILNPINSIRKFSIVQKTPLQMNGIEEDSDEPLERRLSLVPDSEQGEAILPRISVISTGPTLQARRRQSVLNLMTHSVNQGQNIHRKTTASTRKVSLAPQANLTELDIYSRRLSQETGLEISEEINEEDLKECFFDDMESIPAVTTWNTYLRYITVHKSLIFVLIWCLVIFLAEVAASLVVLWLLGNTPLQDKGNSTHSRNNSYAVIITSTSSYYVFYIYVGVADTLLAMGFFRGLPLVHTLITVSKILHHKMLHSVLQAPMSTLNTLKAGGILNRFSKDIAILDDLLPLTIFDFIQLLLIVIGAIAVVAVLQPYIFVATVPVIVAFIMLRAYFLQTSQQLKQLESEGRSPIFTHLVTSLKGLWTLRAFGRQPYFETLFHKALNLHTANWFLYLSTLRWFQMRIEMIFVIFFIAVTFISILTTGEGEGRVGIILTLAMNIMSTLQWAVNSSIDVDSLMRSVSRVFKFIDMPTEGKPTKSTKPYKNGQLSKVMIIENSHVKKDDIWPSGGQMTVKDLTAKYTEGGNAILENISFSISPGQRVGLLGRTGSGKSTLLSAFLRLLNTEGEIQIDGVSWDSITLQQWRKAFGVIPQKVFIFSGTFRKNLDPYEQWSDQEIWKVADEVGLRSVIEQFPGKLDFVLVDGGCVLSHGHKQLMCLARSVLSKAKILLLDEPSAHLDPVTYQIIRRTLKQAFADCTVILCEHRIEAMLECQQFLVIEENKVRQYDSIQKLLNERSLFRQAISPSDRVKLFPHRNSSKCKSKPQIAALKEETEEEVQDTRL
Experiment: hBE equivalent current (Ieq) assay: AUC of equivalent chloride current after forskolin/VX-770 in primary lung epithelial cells homozygous for ΔF508
Type: cell-based
Settings: relative to CFTR amplifier (Compound A)+VX-809 (3 uM), compound at 10 uM and Compound A at 3 uM, 24 h treatment
Description: ii. hBE Equivalent Current (Ieq) Assay
Primary lung epithelial cells homozygous for the Cystic Fibrosis-causing ΔF508 mutation were differentiated for a minimum of 4 weeks in an air-liquid interface on Costar 24 well HTS filter plates prior to the equivalent current (Ieq) measurements. Cells were apically mucus-washed for 30 minutes 24 h prior to treatment with compounds. The basolateral media was removed and replaced with media containing the compound of interest diluted to its final concentration from DMSO stocks. Treated cells were incubated at 37° C. and 5% CO2 for 24 hours. At the end of the treatment period, the media was changed to the Ieq experimental solution for 2 hours before the experiment and plates are maintained in a CO2-free incubator during this period. The plates containing the cells were then placed in pre-warmed heating blocks at 36° C.±0.5 for 15 minutes before measurements are taken. The transepithelial voltage (VT) and conductance (GT) were measured using a custom 24 channel current clamp (TECC-24) with 24 well electrode manifold. The Ieq assay measurements were made following additions with standardized time periods: • 1. The baseline VT and GT values were measured for approximately 20 minutes. • 2. Benzamil was added to block ENaC for 15 minutes. • 3. Forskolin plus VX-770 were added to maximally activate ΔF508-CFTR for 27 minutes. • 4. Bumetanide was added to inhibit the NaK2Cl cotransporter and shut-off secretion of chloride.
The activity data captured was the area under the curve (AUC) for the traces of the equivalent chloride current. The AUC was collected from the time of the forskolin/VX-770 addition until the inhibition by bumetanide addition. Correction in response to compound treatment was scored as the increase in the AUC for compound-treated samples over that of vehicle-treated samples.
(+ indicates activity<50% of an CFTR amplifier (Compound A)+VX-809 (3 uM) with compound at 10 uM and Compound A at 3 uM; ++ indicates activity>50% of CFTR amplifier+VX-809 (3 uM) with compound at 10 uM and Compound A at 3 uM.

| SMILES | Activity |
| --- | --- |
| CCc1ccc(OCc2cccc(-c3cccnc3)c2)c2c(C(=O)O)cc(-c3csc4ccccc34)nc12 [Compound 194] | + (activity<50% of an CFTR amplifier (Compound A)+VX-809 (3 uM) with compound at 10 uM and Compound A at 3 uM) |
| Cc1c(-c2cc(C(=O)O)c3c(C)ccc(C)c3n2)oc2c(Cl)cccc12 [Compound 129, 2-(7-Chloro-3-methylbenzofuran-2-yl)-5,8-dimethylquinoline-4-carboxylic acid] | + (activity<50% of an CFTR amplifier (Compound A)+VX-809 (3 uM) with compound at 10 uM and Compound A at 3 uM) |
| Cc1c(-c2cc(C(=O)O)c3c(OC4CCCCC4)ccc(C)c3n2)sc2ccccc12 [Compound 134, 5-(Cyclohexyloxy)-8-methyl-2-(3-methyl-1-benzothiophen-2-yl)quinoline-4-carboxylic acid] | ++ (activity>50% of CFTR amplifier+VX-809 (3 uM) with compound at 10 uM and Compound A at 3 uM) |
| COCC[C@H](Oc1ccc(C)c2nc(-c3sc4ccccc4c3C)cc(C(=O)[O-])c12)c1ccccc1.[Na+] [Compound 312] | ++ (activity>50% of CFTR amplifier+VX-809 (3 uM) with compound at 10 uM and Compound A at 3 uM) |
| Cc1c(-c2cc(C(=O)[O-])c3c(OC(C)c4ccc(C5COC5)cc4)ccc(C)c3n2)oc2ccccc12.[Na+] (stereo not drawn) [Compound 372] | ++ (activity>50% of CFTR amplifier+VX-809 (3 uM) with compound at 10 uM and Compound A at 3 uM) |
| Cc1c(-c2cc(C(=O)O)c3c(OCc4ccccn4)ccc(C)c3n2)oc2ccccc12 [Compound 115, 8-Methyl-2-(3-methyl-1-benzofuran-2-yl)-5-(pyridin-2-ylmethoxy)quinoline-4-carboxylic acid] | + (activity<50% of an CFTR amplifier (Compound A)+VX-809 (3 uM) with compound at 10 uM and Compound A at 3 uM) |
| Cc1c(-c2cc(C(=O)[O-])c3c(O[C@H](C)c4ccc(OC(F)F)cc4)ccc(C)c3n2)oc2ccccc12.[Na+] [Compound 235] | ++ (activity>50% of CFTR amplifier+VX-809 (3 uM) with compound at 10 uM and Compound A at 3 uM) |
| Cc1c(-c2cc(C(=O)O)c3c(OCCc4ccccc4)ccc(C)c3n2)oc2ccccc12 [Compound 73, 8-methyl-2-(3-methyl-1-benzofuran-2-yl)-5-(2-phenylethoxy)quinoline-4-carboxylic acid] | ++ (activity>50% of CFTR amplifier+VX-809 (3 uM) with compound at 10 uM and Compound A at 3 uM) |
| Cc1c(-c2cc(C(=O)[O-])c3c(OCC4COC4)ccc(C)c3n2)sc2ccccc12.[Na+] [Compound 346] | ++ (activity>50% of CFTR amplifier+VX-809 (3 uM) with compound at 10 uM and Compound A at 3 uM) |
| CO[C@]1(C)CC[C@@H](COc2ccc(C)c3nc(-c4oc5ccccc5c4C)cc(C(=O)[O-])c23)CC1.[Na+] [Compound 388] | ++ (activity>50% of CFTR amplifier+VX-809 (3 uM) with compound at 10 uM and Compound A at 3 uM) |
| CO[C@]1(C)C[C@@H](COc2ccc(C)c3nc(-c4sc5ccccc5c4C)cc(C(=O)[O-])c23)C1.[Na+] [Compound 325] | ++ (activity>50% of CFTR amplifier+VX-809 (3 uM) with compound at 10 uM and Compound A at 3 uM) |
| Cc1c(-c2cc(C(=O)O)c3c(OC(F)F)ccc(C)c3n2)oc2ccccc12 [Compound 120, 5-(Difluoromethoxy)-8-methyl-2-(3-methyl-1-benzofuran-2-yl)quinoline-4-carboxylic acid] | ++ (activity>50% of CFTR amplifier+VX-809 (3 uM) with compound at 10 uM and Compound A at 3 uM) |
| Cc1c(-c2cc(C(=O)O)c3c(OC4CCCC(c5ccccc5)C4)ccc(C)c3n2)oc2ccccc12 (stereo not drawn) [Compound 77, 8-Methyl-2-(3-methyl-1-benzofuran-2-yl)-5-[(3-phenylcyclohexyl)oxy]quinoline-4-carboxylic acid] | ++ (activity>50% of CFTR amplifier+VX-809 (3 uM) with compound at 10 uM and Compound A at 3 uM) |
| Cc1c(-c2cc(CC(=O)O)c3c(OC(C)c4ccccc4)ccc(C)c3n2)oc2ccccc12 (stereo not drawn) [Compound 276, 2-[8-Methyl-2-(3-methyl-1-benzofuran-2-yl)-5-(1-phenylethoxy)quinolin-4-yl]acetic Acid] | ++ (activity>50% of CFTR amplifier+VX-809 (3 uM) with compound at 10 uM and Compound A at 3 uM) |
| CO[C@]1(C)CC[C@H](COc2ccc(C)c3nc(-c4sc5ccccc5c4C)cc(C(=O)[O-])c23)CC1.[Na+] [Compound 326] | ++ (activity>50% of CFTR amplifier+VX-809 (3 uM) with compound at 10 uM and Compound A at 3 uM) |
| Cc1c(-c2cc(C(=O)O)c3c(OC4CCCc5ccccc54)ccc(C)c3n2)oc2ccccc12 (stereo not drawn) [Compound 335] | ++ (activity>50% of CFTR amplifier+VX-809 (3 uM) with compound at 10 uM and Compound A at 3 uM) |
| Cc1ccc(C)c2c(C(=O)O)cc(-c3oc4ccccc4c3Br)nc12 [Compound 39, 2-(3-Bromo-1-benzofuran-2-yl)-5,8-dimethylquinoline-4-carboxylic acid] | + (activity<50% of an CFTR amplifier (Compound A)+VX-809 (3 uM) with compound at 10 uM and Compound A at 3 uM) |
| Cc1c(-c2cc(C(=O)O)c3cc(C#N)cc(C)c3n2)oc2ccccc12 [Compound 22, 6-Cyano-8-methyl-2-(3-methyl-1-benzofuran-2-yl)quinoline-4-carboxylic Acid] | + (activity<50% of an CFTR amplifier (Compound A)+VX-809 (3 uM) with compound at 10 uM and Compound A at 3 uM) |
| Cc1cc(C)c2nc(-c3sc4ccccc4c3C)cc(C(=O)O)c2c1 [Compound 18, 6,8-Dimethyl-2-(3-methylbenzo[b]thiophen-2-yl)quinoline-4-carboxylic acid] | + (activity<50% of an CFTR amplifier (Compound A)+VX-809 (3 uM) with compound at 10 uM and Compound A at 3 uM) |
| CCc1ccc(OCc2ccc(C)cc2)c2c(C(=O)O)cc(-c3csc4ccccc34)nc12 [Compound 189] | ++ (activity>50% of CFTR amplifier+VX-809 (3 uM) with compound at 10 uM and Compound A at 3 uM) |
| Cc1c(-c2cc(C(=O)[O-])c3c(O[C@H](C)c4ccc(S(C)(=O)=O)cc4)ccc(C)c3n2)sc2ccccc12.[Na+] [Compound 265] | ++ (activity>50% of CFTR amplifier+VX-809 (3 uM) with compound at 10 uM and Compound A at 3 uM) |
| CCc1ccc(O[C@H]2CCC[C@@H](C)C2)c2c(C(=O)[O-])cc(-c3sc4ccccc4c3C)nc12.[Na+] [Compound 215, Sodium 8-Ethyl-2-(3-methyl-1-benzothiophen-2-yl)-5-[[(1S,3R)-3-methylcyclohexyl]oxy]quinoline-4-carboxylate] | ++ (activity>50% of CFTR amplifier+VX-809 (3 uM) with compound at 10 uM and Compound A at 3 uM) |
| Cc1c(-c2cc(C(=O)O)c3c(C)ccc(C)c3n2)oc2c(OCc3ccccc3)cccc12 [Compound 132, 2-[7-(Benzyloxy)-3-methyl-1-benzofuran-2-yl]-5,8-dimethylquinoline-4-carboxylic acid] | ++ (activity>50% of CFTR amplifier+VX-809 (3 uM) with compound at 10 uM and Compound A at 3 uM) |
| CO[C@]1(C)C[C@H](COc2ccc(C)c3nc(-c4sc5ccccc5c4C)cc(C(=O)[O-])c23)C1.[Na+] [Compound 324] | ++ (activity>50% of CFTR amplifier+VX-809 (3 uM) with compound at 10 uM and Compound A at 3 uM) |
| Cc1c(-c2cc(C(=O)O)c3c(O[C@H]4CC[C@@H](c5ncco5)CC4)ccc(C)c3n2)oc2ccccc12 [Compound 196] | ++ (activity>50% of CFTR amplifier+VX-809 (3 uM) with compound at 10 uM and Compound A at 3 uM) |
| Cc1c(-c2cc(C(=O)[O-])c3c(OC[C@H]4CC[C@@](C)(O)CC4)ccc(C)c3n2)oc2ccccc12.[Na+] [Compound 376] | ++ (activity>50% of CFTR amplifier+VX-809 (3 uM) with compound at 10 uM and Compound A at 3 uM) |
| Cc1ccc(OCc2ccccc2)c2c(C(=O)O)cc(-c3cc4ccccc4o3)nc12 [Compound 15, 2-(1-Benzofuran-2-yl)-5-(benzyloxy)-8-methylquinoline-4-carboxylic acid] | ++ (activity>50% of CFTR amplifier+VX-809 (3 uM) with compound at 10 uM and Compound A at 3 uM) |
| CCc1ccc(OCc2ccccc2)c2c(C(=O)O)cc(-c3sc4ccccc4c3C)nc12 [Compound 133, 5-(Benzyloxy)-8-ethyl-2-(3-methyl-1-benzothiophen-2-yl)quinoline-4-carboxylic acid] | ++ (activity>50% of CFTR amplifier+VX-809 (3 uM) with compound at 10 uM and Compound A at 3 uM) |
| Cc1c(-c2cc(C(=O)[O-])c3c(OC4CC5(COC5)C4)ccc(C)c3n2)sc2ccccc12.[Na+] [Compound 370] | ++ (activity>50% of CFTR amplifier+VX-809 (3 uM) with compound at 10 uM and Compound A at 3 uM) |
| Cc1c(-c2cc(C(=O)O)c3c(O[C@@H](C)c4ccccc4)ccc(C)c3n2)sc2ccccc12 [Compound 138, 8-Methyl-2-(3-methyl-1-benzothiophen-2-yl)-5-[(1S)-1-phenylethoxy]quinoline-4-carboxylic Acid] | ++ (activity>50% of CFTR amplifier+VX-809 (3 uM) with compound at 10 uM and Compound A at 3 uM) |
